Assay results as given in PMC7039932, “Development of Relaxin-3 Agonists and Antagonists Based on Grafted Disulfide-Stabilized Scaffolds” (Frontiers in Chemistry, 2020).
Where a SMILES comes first, the peptide text is derived from it. Bridges are numbered along the chain shown (N, C = ends). Where no end group is shown, it is not given here.

Experiments:
In vitro serum stability = assay type: in vitro ADME, human; settings: for half-life at 2.5 µg/mL: human male pooled serum, 570 μl spiked with 30 μl peptide stock (0.05 μg/μl in H2O), quenched with 0.1 M ammonium acetate pH 3, SPE, LC-MS MRM, one phase decay, at least three replicates, read-out: Half-life in serum (T1/2) (converted)
Protocol: The in vitro serum stability was determined by peptide spiking, as previously described (Hossain et al., [2015]). Briefly, 570 μl human male pooled serum was spiked with 30 μl peptide stock solution (0.05 μg/μl in H2O). 100 μl samples were taken out at different time points and quenched with 900 μl ammonium acetate (0.1 M, pH 3). Samples were left on ice for 30 min before being extracted using solid phase extraction cartridges (Oasis HLB 3cc, Waters). Eluted samples were then lyophilized and reconstituted in 1% formic acid. The amount of intact peptide is reported relative to the amount of peptide available at timepoint 0 hr. Quantification was carried out using multiple reaction monitoring on a triple-quad LC-MS (API2000, AB Sciex) and the data analyzed using one phase decay in Prism 7.

RXFP3 [1] = target: T1, RXFP3 (Homo sapiens, UniProt Q9NSD7); assay: Inhibition of forskolin-induced cAMP accumulation, pCRE-β-galactosidase reporter, CHO-K1 cells stably expressing RXFP3; assay type: cell-based; settings: CHO-K1-RXFP3 cells with pCRE-β-galactosidase reporter; 5 μM forskolin; mean ± SEM, number in parentheses = independent experiments in triplicate
T1 construct: expressed in transfected cells; host or cells: CHO-K1 cells stably expressing RXFP3
T1 sequence (Q9NSD7 1-469): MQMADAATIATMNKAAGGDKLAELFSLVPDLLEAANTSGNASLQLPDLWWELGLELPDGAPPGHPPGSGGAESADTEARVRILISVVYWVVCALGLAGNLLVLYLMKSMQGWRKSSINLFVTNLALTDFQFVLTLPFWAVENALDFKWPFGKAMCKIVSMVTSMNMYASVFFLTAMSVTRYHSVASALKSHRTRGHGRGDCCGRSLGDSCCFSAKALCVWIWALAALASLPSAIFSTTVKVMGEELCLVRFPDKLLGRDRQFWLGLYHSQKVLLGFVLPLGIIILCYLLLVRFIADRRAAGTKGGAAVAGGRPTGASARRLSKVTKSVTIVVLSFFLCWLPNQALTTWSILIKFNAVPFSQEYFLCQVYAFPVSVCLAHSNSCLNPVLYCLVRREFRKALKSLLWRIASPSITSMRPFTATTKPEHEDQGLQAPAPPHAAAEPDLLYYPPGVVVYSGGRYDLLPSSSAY
Protocol: The affinity and activity of the grafted peptides were determined as previously described (Haugaard-Kedström et al., [2015]). Briefly, for competition binding studies CHO-K1 cells stably expressing RXFP3 were incubated with 5 nM Eu-DTPA-R3 B1-22R and increasing concentrations of peptide analogs. Unlabeled R3 B1-22R was used as reference compound. The europium was detected by the addition of enhancement solution and fluorescence recorded using an excitation of 340 nm and emission reading at 614 nm. For agonists the ability of analogs to inhibit cAMP accumulation were tested in CHO-K1 cells stably expressing RXFP3 transfected with a pCRE-β-galactosidase reporter plasmid. Cells were stimulated with 5 μM forskolin and incubated with increasing concentrations of relaxin-3 analogs as previously described (Shabanpoor et al., [2012]). […] Data are expressed as mean ± SEM and analyzed using Prism 8 (GraphPad).
The binding affinity of the grafted peptides were determined using CHO cells stably expressing RXFP3 by measuring increasing concentrations of the grafted peptides' ability to compete for the binding site with europium labeled R3 B1-22R (Haugaard-Kedström et al., [2015]). Activation was measured by assessing the ability of the analogs to inhibit cAMP accumulation induced by forskolin in a reporter assay, as RXFP3 couples to an inhibitory G-protein.

RXFP3 [2] = target: T2, RXFP3 (Homo sapiens, UniProt Q9NSD7); assay: competition binding with Eu-R3 B1-22R on CHO-K1 cells
T2 chain: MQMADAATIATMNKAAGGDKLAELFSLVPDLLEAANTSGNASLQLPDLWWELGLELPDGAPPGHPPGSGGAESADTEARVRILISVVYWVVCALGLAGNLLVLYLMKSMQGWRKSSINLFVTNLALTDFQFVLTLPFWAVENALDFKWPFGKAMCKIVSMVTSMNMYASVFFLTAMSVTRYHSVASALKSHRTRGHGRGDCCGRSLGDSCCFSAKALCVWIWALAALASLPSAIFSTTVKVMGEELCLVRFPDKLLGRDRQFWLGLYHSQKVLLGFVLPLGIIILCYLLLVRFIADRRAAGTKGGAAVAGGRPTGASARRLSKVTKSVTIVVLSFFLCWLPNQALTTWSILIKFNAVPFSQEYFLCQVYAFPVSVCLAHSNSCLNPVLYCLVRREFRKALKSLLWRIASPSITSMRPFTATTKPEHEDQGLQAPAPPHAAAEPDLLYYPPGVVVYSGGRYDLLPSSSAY

CC[C@H](C)[C@H](NC(=O)[C@H](Cc1ccccc1)NC(=O)[C@H](CCC(=O)O)NC(=O)[C@H](CCCNC(=N)N)NC(=O)CNC(=O)[C@H](CS)NC(=O)[C@H](CC(C)C)NC(=O)[C@H](CCCNC(=N)N)NC(=O)[C@@H](NC(=O)CNC(=O)[C@H](Cc1ccc(O)cc1)NC(=O)[C@@H]1CCCN1C(=O)[C@H](C)NC(=O)[C@H](C)NC(=O)[C@@H](N)CCCNC(=N)N)C(C)C)C(=O)N[C@@H](CCCNC(=N)N)C(=O)N[C@@H](C)C(=O)N[C@H](C(=O)N[C@H](C(=O)N[C@@H](Cc1ccccc1)C(=O)N[C@H](C(=O)N[C@@H](CS)C(=O)NCC(=O)NCC(=O)N[C@@H](CO)C(=O)N[C@@H](CCCNC(=N)N)C(=O)N[C@@H](Cc1c[nH]c2ccccc12)C(=O)O)[C@@H](C)O)[C@@H](C)CC)C(C)C [Analog 2, reference compound]
half-life at 2.5 µg/mL (In vitro serum stability): 0.0517 h

CC[C@H](C)[C@@H]1NC(=O)[C@H](C)NC(=O)[C@@H]2CSSC[C@H](N)C(=O)N[C@@H](CC(N)=O)C(=O)N[C@@H](CSSC[C@@H](C(=O)N[C@H](C(=O)N[C@H](C(=O)N[C@@H](Cc3ccccc3)C(=O)N[C@H](C(=O)N[C@@H](CO)C(=O)NCC(=O)NCC(=O)N[C@@H](CO)C(=O)N[C@@H](CCCNC(=N)N)C(=O)N[C@@H](Cc3c[nH]c4ccccc34)C(=O)O)[C@@H](C)O)[C@@H](C)CC)C(C)C)NC(=O)[C@H](CCCNC(=N)N)NC1=O)C(=O)N[C@@H](CCCCN)C(=O)N[C@@H](C)C(=O)N1CCC[C@H]1C(=O)N[C@@H](CCC(=O)O)C(=O)N[C@@H]([C@@H](C)O)C(=O)N[C@@H](C)C(=O)N[C@@H](CCCNC(=N)N)C(=O)N2 [Analog 3] (H-CNCKAPETARCAIRCVIFTSGGSRW-OH; disulfide 1-11, 3-15)
half-life at 2.5 µg/mL (In vitro serum stability): 12.8 h | Fold improvement in serum stability versus linear counterpart (In vitro serum stability; human serum T1/2 of grafted peptide relative to linear R3 B1-27 or R3 B1-22R): 250 fold

CC[C@H](C)[C@@H]1NC(=O)[C@H](C)NC(=O)[C@@H]2CSSC[C@H](N)C(=O)N[C@@H](CC(N)=O)C(=O)N[C@@H](CSSC[C@@H](C(=O)N[C@H](C(=O)N[C@H](C(=O)N[C@@H](Cc3ccccc3)C(=O)N[C@H](C(=O)N[C@@H](CO)C(=O)N[C@@H](CCCNC(=N)N)C(N)=O)[C@@H](C)O)[C@@H](C)CC)C(C)C)NC(=O)[C@H](CCCNC(=N)N)NC1=O)C(=O)N[C@@H](CCCCN)C(=O)N[C@@H](C)C(=O)N1CCC[C@H]1C(=O)N[C@@H](CCC(=O)O)C(=O)N[C@@H]([C@@H](C)O)C(=O)N[C@@H](C)C(=O)N[C@@H](CCCNC(=N)N)C(=O)N2 [Analog 9] (H-CNCKAPETARCAIRCVIFTSR-NH2; disulfide 1-11, 3-15)
cAMP activity pEC50 ± SEM (RXFP3 [1]): No activity | half-life at 2.5 µg/mL (In vitro serum stability): 6.6 h

RAAPYGVRLSGREFIRAVIFTSR-NH2 [Analog 8, reference compound]
half-life at 2.5 µg/mL (In vitro serum stability): 0.0667 h

RAAPYGVRLSGREFIRAVIFTSR-NH2 [Analog 8]
cAMP activity pEC50 ± SEM (RXFP3 [1]): No activity

B1: relaxin-3 (R3 acid, analog 1) (protein)
chain 1: RAAPYGVRLCGREFIRAVIFTCGGSRW
chain 2: DVLAGLSSSCCKWGCSKSEISSLC
Ki (RXFP3 [2]): 20.4 nM

MARYMLLLLLAVWVLTGELWPGAEARA [relaxin-3 B-chain (R3 B1-27, analog 2) B-chain 1-27]
Ki (RXFP3 [2]): 1230 nM
